Results: US20240217951A1, “PCSK9 INHIBITORS AND METHODS OF USE THEREOF” (AstraZeneca AB, priority 2022, published 2024)

Experiments:
[1] = target: T1, potassium ion channel hERG (human Ether-á-go-go-Related Gene) (Homo sapiens, UniProt Q12809); assay: Assay 5 - hERG assay (SyncroPatch 384PE patch clamp, CHO cells); format: cell-based; settings: geometric mean; CHO cells over-expressing hERG; read-out: Assay 5 (hERG Hu CHO IF EPh CR-Syncro) GMean IC50
T1 construct: expressed in transfected cells; host or cells: Chinese hamster ovary K1 (CHO)
Procedure, shortened: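 Automated high-throughput patch clamp on CHO-K1 cells overexpressing hERG at room temperature, KF/KCl internal with escin, NMDG-containing external at pH 7.4. Six-point cumulative compound addition, 0.33% DMSO final; wells kept only with seal >30 MΩ, Z′ >0.4 and current >0.2 nA.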

[2] = target: GSK3β (Glycogen synthase kinase-3 beta) (Homo sapiens, UniProt P49841); assay: Assay 6 - GSK3β assay (ThermoFisher Z-Lyte); format: biochemical; settings: geometric mean; ATP Conc: 10 μM; read-out: Assay 6 (GSK3β FRET-Z-Lyte CR) GMean IC50 (μM) ATP Conc: 10
Procedure, shortened: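 Z-Lyte fluorescence kinase assay with 0.22-0.92 ng GSK3β and 2 μM Ser/Thr 09 peptide in 50 mM HEPES pH 7.5, 10 mM MgCl2, 1 mM EGTA, 0.01% BRIJ-35. Kinase reaction 60 min at room temperature, then 60 min development. 10-point 3-fold titration from 10 μM in 1% DMSO, fitted to a sigmoidal dose-response curve.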

PCSK9 [3] = target: T2, PCSK9 (Homo sapiens, UniProt Q8NBP7, G670E/V474I); assay: biochemical
PCSK9 [4] = target: T2, PCSK9; assay: Assay 3 - PCSK9 LDL-C uptake assay in HepG2 cells; format: cell-based; design: TEV cleavage site (C); His6 (C); host or cells: added to HepG2 cells (ATCC #HB-8065); settings: 125 nM PCSK9, pHrodo Red-LDL, read-out: Assay 3 LDL uptake potency
Source text: Assay 3—PCSK9 LDL-C Uptake Assay
This assay measures for PCSK9 antagonist activity based on a test compound's capacity to restore LDL-C-uptake in HepG2 cells. The assay is based on exogenous PCSK9 and LDL-C complexed with a pH-sensitive dye. Outside the cells, at neutral pH, the pHrodo Red-LDL is dimly fluorescent but upon LDLR mediated endocytosis it fluoresces brightly. PCSK9 traffics the LDLR to intracellular degradation and reduces uptake of LDL-C. Inhibition of PCSK9 reduces LDLR degradation and the increased LDL-C uptake is quantified by fluorescence microscopy.
Preparation of Assay Reagents
Cell medium: MEM supplemented with 10% FBS, 1×NEAA and Sodium Pyruvate Assay medium: OptiMem supplemented with penicillin/streptomycin
Cells: HepG2 (ATCC #HB-8065)
Step by Step Protocol for Running the Assay:
• 1. Cryopreserved HepG2 cells were thawed in assay medium and centrifuged for 5 min at 250 g. Supernatant was discarded and the cell pellet resuspended in cell medium and counted with a Nucleocounter. Cells were again centrifuged 5 min at 250 g and the pellet was resuspended to 500000 cells/mL in assay medium. • 2. 20 μL of above cell mix was dispensed into black pclear TC treated 384 well plates with Multidrop Combi and left at room temperature for 20 minutes. • 3. Plates were incubated at 37° C., 5% CO2 for 24 h
• 1. Test compounds were prepared in concentration response in DMSO with a half-log dilution factor in DMSO in Echo 384 LDV plates starting at 10 mM. • 2. 30 nL of above test compounds were dispensed with Echo 655 to cells for a top concentration of 10 μM • 3. 10 μL PCSK9 in assay medium was dispensed to cells with Multidrop Combi for 125 nM final concentration in the wells. • 4. Plates were incubated at 37° C., 5% CO2 for 24 h
• 1. 10 μL pHrodo Red-LDL in assay medium was dispensed to cells with Multidrop Combi for 6 μg/mL • 2. Plates were incubated at 37° C., 5% CO2 and imaged with the Incucyte S3 after 4 h and 24 h
Image data was processed using Incucyte 2021, a software to identify cells and red fluorescent intensity. Screener was used to further process data. Data was normalized as % effect of the signal between median values of the on-plate controls of DMSO and 100 nM Evolocumab according to the formula % effect=−100*(x−DMSO)/(Evolocumab−DMSO) where x equals the measured signal. Concentration response data of the normalized values were fitted using a four-parameter logistic fit.

T1 sequence (Q12809 whole entry): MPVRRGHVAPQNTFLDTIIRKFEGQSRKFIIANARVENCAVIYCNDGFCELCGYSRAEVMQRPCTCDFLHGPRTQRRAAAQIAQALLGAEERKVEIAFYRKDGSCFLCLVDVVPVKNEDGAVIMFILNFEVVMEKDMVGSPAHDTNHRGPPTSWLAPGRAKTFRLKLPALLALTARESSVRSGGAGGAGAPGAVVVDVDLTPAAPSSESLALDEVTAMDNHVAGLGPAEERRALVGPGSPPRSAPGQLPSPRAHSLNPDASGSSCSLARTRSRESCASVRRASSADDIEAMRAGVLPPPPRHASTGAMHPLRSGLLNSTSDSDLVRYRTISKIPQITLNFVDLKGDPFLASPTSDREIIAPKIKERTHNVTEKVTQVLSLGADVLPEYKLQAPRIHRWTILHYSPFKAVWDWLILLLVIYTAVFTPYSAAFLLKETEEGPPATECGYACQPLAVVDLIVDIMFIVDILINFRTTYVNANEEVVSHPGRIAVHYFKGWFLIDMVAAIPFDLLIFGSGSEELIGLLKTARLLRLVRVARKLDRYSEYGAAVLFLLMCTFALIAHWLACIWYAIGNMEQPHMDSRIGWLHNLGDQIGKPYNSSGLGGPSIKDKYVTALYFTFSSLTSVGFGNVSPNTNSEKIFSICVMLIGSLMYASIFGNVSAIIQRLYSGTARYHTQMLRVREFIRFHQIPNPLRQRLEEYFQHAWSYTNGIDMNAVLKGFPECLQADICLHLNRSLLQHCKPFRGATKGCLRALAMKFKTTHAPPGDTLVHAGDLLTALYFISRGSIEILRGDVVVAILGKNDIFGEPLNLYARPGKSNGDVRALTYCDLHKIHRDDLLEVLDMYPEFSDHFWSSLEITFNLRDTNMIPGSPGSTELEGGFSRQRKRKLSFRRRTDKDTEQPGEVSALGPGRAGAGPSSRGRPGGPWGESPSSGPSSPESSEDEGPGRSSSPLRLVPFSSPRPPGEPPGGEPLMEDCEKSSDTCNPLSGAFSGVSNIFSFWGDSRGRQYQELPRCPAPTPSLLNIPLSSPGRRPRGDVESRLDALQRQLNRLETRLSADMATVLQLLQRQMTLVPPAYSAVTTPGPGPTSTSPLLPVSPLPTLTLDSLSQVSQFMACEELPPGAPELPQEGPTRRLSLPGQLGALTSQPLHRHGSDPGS
Sequence of GSK3β (Glycogen synthase kinase-3 beta) (P49841 whole entry): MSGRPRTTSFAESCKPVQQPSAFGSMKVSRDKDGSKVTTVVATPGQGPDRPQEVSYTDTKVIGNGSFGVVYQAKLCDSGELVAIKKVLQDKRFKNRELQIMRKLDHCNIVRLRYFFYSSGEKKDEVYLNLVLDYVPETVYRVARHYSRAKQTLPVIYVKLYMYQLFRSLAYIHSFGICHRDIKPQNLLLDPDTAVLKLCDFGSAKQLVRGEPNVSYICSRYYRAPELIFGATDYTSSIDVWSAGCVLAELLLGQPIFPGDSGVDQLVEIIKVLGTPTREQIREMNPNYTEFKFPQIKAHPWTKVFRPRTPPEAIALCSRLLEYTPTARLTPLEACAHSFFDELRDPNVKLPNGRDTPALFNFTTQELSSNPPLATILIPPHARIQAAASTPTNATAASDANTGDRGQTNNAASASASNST
T2 sequence (Q8NBP7 with tags, fused parts or gaps V474I/G670E): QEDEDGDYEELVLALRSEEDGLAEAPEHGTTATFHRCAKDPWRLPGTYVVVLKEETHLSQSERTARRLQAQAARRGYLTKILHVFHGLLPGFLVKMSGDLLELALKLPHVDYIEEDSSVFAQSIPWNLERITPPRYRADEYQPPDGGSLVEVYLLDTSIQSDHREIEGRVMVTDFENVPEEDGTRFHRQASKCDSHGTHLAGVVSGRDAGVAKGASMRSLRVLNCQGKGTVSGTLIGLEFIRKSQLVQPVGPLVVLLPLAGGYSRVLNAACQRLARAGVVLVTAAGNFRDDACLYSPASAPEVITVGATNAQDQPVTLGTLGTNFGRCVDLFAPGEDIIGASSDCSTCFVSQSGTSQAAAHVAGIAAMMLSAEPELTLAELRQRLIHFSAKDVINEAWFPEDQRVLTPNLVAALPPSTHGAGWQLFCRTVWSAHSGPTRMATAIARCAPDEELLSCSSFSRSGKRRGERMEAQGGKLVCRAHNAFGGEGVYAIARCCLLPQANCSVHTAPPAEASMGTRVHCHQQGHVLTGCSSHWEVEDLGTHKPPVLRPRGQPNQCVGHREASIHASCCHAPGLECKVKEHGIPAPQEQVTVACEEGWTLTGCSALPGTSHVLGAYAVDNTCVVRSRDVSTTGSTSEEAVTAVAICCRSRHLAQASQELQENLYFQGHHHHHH

For `Cn1c(=O)n(-c2ccc(N[C@H]3CC[C@H](Nc4cnc(Cl)cn4)C3)nc2)c2ncccc21` [Example 98, 3-(6-(((1S,3S)-3-((5-Chloropyrazin-2-yl)amino)cyclopentyl)amino)pyridin-3-yl)-1-methyl-1,3-dihydro-2H-imidazo[4,5-b]pyridin-2-one], the IC50 [1] was 10.8 µM, the IC50 [2] was greater than 10 µM and the IC50 (PCSK9 [3]) was 0.0042 µM. It also gave an EC50 (PCSK9 [4]) of 0.8 µM.
`Cc1cnc(N[C@H]2CC[C@H](Nc3ccc(-n4cc(-c5nnn[nH]5)ccc4=O)cn3)C2)cn1` [Example 177, 6′-(((1S,3S)-3-((5-Methylpyrazin-2-yl)amino)cyclopentyl)amino)-5-(1H-tetrazol-5-yl)-2H-[1,3′-bipyridin]-2-one] showed an IC50 [1] greater than 40.1 µM, an IC50 [2] greater than 10 µM and an IC50 (PCSK9 [3]) of 0.0054 µM. For the same compound, the EC50 (PCSK9 [4]) was 0.2 µM.
For `Cc1cnc(N[C@H]2CC[C@H](Nc3ccc(-n4cc(CS(C)(=O)=O)ccc4=O)cn3)C2)cn1` [Example 259, 6′-(((1S,3S)-3-((5-Methylpyrazin-2-yl)amino)cyclopentyl)amino)-5-((methylsulfonyl)methyl)-2H-[1,3′-bipyridin]-2-one], the IC50 [1] was greater than 40.1 µM, the IC50 [2] was greater than 10 µM and the IC50 (PCSK9 [3]) was 0.043 µM. For the same compound, the EC50 (PCSK9 [4]) was greater than 0.6 µM.
With `Cc1cnc(N[C@H]2CC[C@H](Nc3ccc(-n4c(=O)n(C)c5cc(C#N)ccc54)cn3)C2)cn1` [Example 216, 3-Methyl-1-(6-(((1S,3S)-3-((5-methylpyrazin-2-yl)amino)cyclopentyl)amino)pyridin-3-yl)-2-oxo-2,3-dihydro-1H-benzo[d]imidazole-5-carbonitrile] the IC50 [1] was 7.3 µM, the IC50 [2] was greater than 10 µM and the IC50 (PCSK9 [3]) was 0.0028 µM. For the same compound, the EC50 (PCSK9 [4]) was 0.3 µM.
In the case of `N#Cc1cccn(-c2ccc(N[C@H]3CC[C@H](Nc4cnc(C5CC5)cn4)C3)nc2)c1=O` [Example 104, 6′-(((1S,3S)-3-((5-Cyclopropylpyrazin-2-yl)amino)cyclopentyl)amino)-2-oxo-2H-[1,3′-bipyridine]-3-carbonitrile], the IC50 [1] is reported as 24.2 µM, the IC50 [2] is reported as greater than 10 µM and the IC50 (PCSK9 [3]) is reported as 0.0058 µM. For the same compound, the EC50 (PCSK9 [4]) was 0.5 µM.
`Cc1ncc(N[C@H]2CC[C@H](Nc3ccc(-n4c(=O)ccc5cccnc54)cn3)C2)nc1C` [Example 20, 1-(6-(((1S,3S)-3-((5,6-Dimethylpyrazin-2-yl)amino)cyclopentyl)amino)pyridin-3-yl)-1,8-naphthyridin-2 (1H)-one] showed an IC50 [1] greater than 40 µM, an IC50 [2] greater than 10 µM and an IC50 (PCSK9 [3]) of 0.017 µM. It also gave an EC50 (PCSK9 [4]) of 0.1 µM.
Work on `COc1cccn(-c2ccc(N[C@H]3CC[C@H](Nc4cnc(C)c(C)n4)C3)nc2)c1=O` [Example 12, 6′-(((1S,3S)-3-((5,6-Dimethylpyrazin-2-yl)amino)cyclopentyl)amino)-3-methoxy-2H-[1,3′-bipyridin]-2-one] yielded an IC50 [1] greater than 40 µM, an IC50 [2] greater than 10 µM and an IC50 (PCSK9 [3]) of 0.013 µM. It also gave an EC50 (PCSK9 [4]) of 0.1 µM.
For `Cc1cccn(-c2ccc(N[C@H]3CC[C@H](Nc4cnc(OC(F)F)cn4)C3)nc2)c1=O` [Example 84, 6′-(((1S,3S)-3-((5-(Difluoromethoxy)pyrazin-2-yl)amino)cyclopentyl)amino)-3-methyl-2H-[1,3′-bipyridin]-2-one], the IC50 [1] was 6.9 µM, the IC50 [2] was greater than 10 µM and the IC50 (PCSK9 [3]) was 0.011 µM. It also gave an EC50 (PCSK9 [4]) of 0.7 µM.
In the case of `COc1cccn(-c2ccc(N[C@H]3CC[C@H](Nc4cnc(Cl)cn4)C3)nc2)c1=O` [Example 13, 6′-(((1S,3S)-3-((5-Chloropyrazin-2-yl)amino)cyclopentyl)amino)-3-methoxy-2H-[1,3′-bipyridin]-2-one], the IC50 [1] is reported as 35.6 µM, the IC50 [2] is reported as greater than 10 µM and the IC50 (PCSK9 [3]) is reported as 0.004 µM. The EC50 (PCSK9 [4]) was 0.2 µM.
Compound `Cc1cnc(N[C@H]2CC[C@H](Nc3ccc(-n4c(=O)n(C)c5ccc(C#N)cc54)cn3)C2)cn1` [Example 215, 1-Methyl-3-(6-(((1S,3S)-3-((5-methylpyrazin-2-yl)amino)cyclopentyl)amino)pyridin-3-yl)-2-oxo-2,3-dihydro-1H-benzo[d]imidazole-5-carbonitrile] has an IC50 [1] of 16 µM, an IC50 [2] greater than 10 µM and an IC50 (PCSK9 [3]) of 0.001 µM. For the same compound, the EC50 (PCSK9 [4]) was 0.1 µM.
`Cc1cnc(N[C@H]2CC[C@H](Nc3ccc(-n4cccc(OC(F)(F)F)c4=O)cn3)C2)cn1` [Example 148, 6′-(((1S,3S)-3-((5-Methylpyrazin-2-yl)amino)cyclopentyl)amino)-3-(trifluoromethoxy)-2H-[1,3′-bipyridin]-2-one] was tested, and the IC50 [1] was greater than 40.1 µM, the IC50 [2] was greater than 10 µM and the IC50 (PCSK9 [3]) was 0.008 µM. The EC50 (PCSK9 [4]) was 0.2 µM.
Work on `Cc1cnc(N[C@H]2CC[C@H](Nc3ccc(-n4c(=O)ccc5ccccc54)cn3)C2)cn1` [Example 38, 1-(6-(((1S,3S)-3-((5-Methylpyrazin-2-yl)amino)cyclopentyl)amino)pyridin-3-yl)quinolin-2(1H)-one] yielded an IC50 [1] of 25.1 µM, an IC50 [2] greater than 10 µM and an IC50 (PCSK9 [3]) of 0.0022 µM. The EC50 (PCSK9 [4]) was 0.1 µM.
`Cc1cnc(N[C@H]2CC[C@H](Nc3ccc(-n4c(=O)n(C)c5cc(C#N)cnc54)cn3)C2)cn1` [Example 218, 1-Methyl-3-(6-(((1S,3S)-3-((5-methylpyrazin-2-yl)amino)cyclopentyl)amino)pyridin-3-yl)-2-oxo-2,3-dihydro-1H-imidazo[4,5-b]pyridine-6-carbonitrile] was tested, and the IC50 [1] was 22.5 µM, the IC50 [2] was greater than 10 µM and the IC50 (PCSK9 [3]) was 0.0054 µM. The EC50 (PCSK9 [4]) was 0.3 µM.
`COc1cccn(-c2ccc(N[C@H]3CC[C@H](Nc4cnc(C)cn4)C3)nc2)c1=O` (racemic) [Example 170, rel-3-Methoxy-6′-(((1R,3R)-3-((5-methylpyrazin-2-yl)amino)cyclopentyl)amino)-2H-[1,3′-bipyridin]-2-one] gave an IC50 [1] greater than 40.1 µM, an IC50 [2] of 7 µM and an IC50 (PCSK9 [3]) of 0.011 µM. The EC50 (PCSK9 [4]) was 0.2 µM.
In the case of `O=c1[nH]c2ccccc2n1-c1ccc(N[C@H]2CC[C@H](Nc3cnc(Cl)cn3)C2)nc1` [Example 31, 1-(6-(((1S,3S)-3-((5-Chloropyrazin-2-yl)amino)cyclopentyl)amino)pyridin-3-yl)-1,3-dihydro-2H-benzo[d]imidazol-2-one], the IC50 [1] is reported as 8.2 µM, the IC50 [2] is reported as greater than 10 µM and the IC50 (PCSK9 [3]) is reported as 0.0037 µM. For the same compound, the EC50 (PCSK9 [4]) was 0.2 µM.
Compound `Cc1ncc(N[C@H]2CC[C@H](Nc3ccc(-n4cccc(C#N)c4=O)cn3)C2)nc1C` [Example 23, 6′-(((1S,3S)-3-((5,6-Dimethylpyrazin-2-yl)amino)cyclopentyl)amino)-2-oxo-2H-[1,3′-bipyridine]-3-carbonitrile] has an IC50 [1] of 35.9 µM, an IC50 [2] greater than 10 µM and an IC50 (PCSK9 [3]) of 0.0088 µM. It also gave an EC50 (PCSK9 [4]) of 0.7 µM.
`Cc1cnc(N[C@H]2CC[C@H](Nc3ccc(-n4cc(Cl)ccc4=O)cn3)C2)cn1` [Example 43, 5-Chloro-6′-(((1S,3S)-3-((5-methylpyrazin-2-yl)amino)cyclopentyl)amino)-2H-[1,3′-bipyridin]-2-one] showed an IC50 [1] greater than 40 µM, an IC50 [2] greater than 10 µM and an IC50 (PCSK9 [3]) of 0.022 µM. For the same compound, the EC50 (PCSK9 [4]) was 0.7 µM.
Work on `COc1cccn(-c2ccc(N[C@H]3CC[C@H](Nc4cnc(C)cn4)C3)nc2)c1=O` (relative stereo) [Example 172, rel-3-Methoxy-6′-(((1R,3R)-3-((5-methylpyrazin-2-yl)amino)cyclopentyl)amino)-2H-[1,3′-bipyridin]-2-one] yielded an IC50 [1] greater than 40.1 µM, an IC50 [2] of 3.7 µM and an IC50 (PCSK9 [3]) of 0.0053 µM. The EC50 (PCSK9 [4]) was 0.1 µM.
With `Cc1ncc(N[C@H]2CC[C@H](Nc3ccc(-n4cc(-c5nnn[nH]5)ccc4=O)cn3)C2)nc1C` [Example 176, 6′-(((1S,3S)-3-((5,6-Dimethylpyrazin-2-yl)amino)cyclopentyl)amino)-5-(1H-tetrazol-5-yl)-2H-[1,3′-bipyridin]-2-one] the IC50 [1] was greater than 40.1 µM, the IC50 [2] was greater than 10 µM and the IC50 (PCSK9 [3]) was 0.012 µM. The EC50 (PCSK9 [4]) was 0.1 µM.
